The results in this text go back to US20230159527A1, “COMPOUNDS AS BCL-2 INHIBITORS” (Fochon Pharmaceuticals, Ltd., priority 2020, published 2023).

Structures are written as SMILES.

In one assay the test system is Toledo cells. Briefly: Cell proliferation assay, Toledo cells (MTS, 72 h). The format is cell-based. To be noted: Homo sapiens, Toledo cells, MTS, read-out: Toledo IC50. The essentials: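 IC50 was derived from 490 nm absorbance after a 2 h MTS step. Before that, compounds at 1.5–10000 nM final (nine points) acted on Toledo cells for 72 h at 37 °C, 5% CO2. Cells were seeded at 30000/well in 10% FBS RPMI-1640 and rested 4 h before dosing.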
For the molecule `CC(C)c1ccccc1[C@@H]1COCCN1C1CC2(CCN(c3ccc(C(=O)NS(=O)(=O)c4cnc(NC[C@H]5CC[C@](C)(O)CC5)c([N+](=O)[O-])c4)c(Oc4cnc5[nH]cc(Cl)c5c4)c3)CC2)C1` (single isomer, unassigned) [Example A-129, 2-((3-chloro-1H-pyrrolo[2,3-b]pyridin-5-yl)oxy)-N-((6-((((1r,4r)-4-hydroxy-4-methylcyclohexyl)methyl)amino)-5-nitropyridin-3-yl)sulfonyl)-4-(2-((R or S)-3-(2-isopropylphenyl)morpholino)-7-azaspiro[3.5]nonan-7-yl) benzamide], the IC50 came to 1 nM.
As for `CC(C)c1ccccc1[C@@H]1CCCN1C1CC2(CCN(c3ccc(C(=O)NS(=O)(=O)c4cc5c(c([N+](=O)[O-])c4)O[C@@H](CN4CCOCC4)CO5)c(Oc4cnc5[nH]ccc5c4)c3)CC2)C1` (single isomer, unassigned) [Example E-35, 2-((1H-pyrrolo [2,3-b]pyridin-5-yl)oxy)-4-(2-((R or S)-2-(2-isopropylphenyl)pyrrolidin-1-yl)-7-azaspiro[3.5]nonan-7-yl)-N-(((S)-2-(morpholinomethyl)-8-nitro-2,3-dihydrobenzo [b][1,4]dioxin-6-yl)sulfonyl) benzamide], the IC50 turned out to be 7 nM.

The subject of another assay is RS4;11-BCL-2 F104L cells. As to the kind of experiment: Cell proliferation assay, engineered RS4;11 cells stably overexpressing BCL-2 F104L (MTS, 168 h). In kind it is cell-based. To be noted: Homo sapiens, read-out: RS4, 11 BCL2-F104L. Here is the method: MTS testing kit was purchased from Promega (Madison, Wis., USA). The RPMI-1640, Fetal bovine serum and Penicillin-Streptomycin were purchased from BI (Biological Industries, Beit Haemek, Israel). Puromycin was purchased from Beyotime (shanghai, China). Dimethyl sulfoxide (DMSO) was purchased from Sigma (St. Louis, Mo., USA). RS4;1l-BCL-2 G101V and RS4;11-BCL-2 F104L cells were cultured in RPM11640 supplemented with 1 ug/mL puromycin, 100 U/mL Penicillin-Streptomycin and 10% FBS.
To investigate whether a compound is able to inhibit the activity of BCL-2 mutation in cells, a mechanism-based assay using engineered cell lines stably overexpressing BCL-2 mutation ([…] and […]) was developed. In this assay, the inhibition of BCL-2 mutation was reflected by the inhibition of cell proliferation of RS4;11-BCL-2 G101V and RS4;11-BCL-2 F104L cells. Cells were plated into 96-well plates at optimized cell density (RS4;11-BCL-2 G101V: 5000 cells/well; RS4;11-BCL-2 F104L: 5000 cells/well). Plates were incubated at 37° C., with 5% CO2 for 4 h. Compounds were serially diluted to the final-concentrations of 10000, 3333.3, 1111.1, 370.4, 123.5, 41.2, 13.7, 4.6 and 1.4 nM and added to the plates. Plates were incubated at 37° C., with 5% CO2 for 168 h. 20 μl MTS was added into each well and the plates were incubated at 37° C., with 5% CO2 exactly for 2 h. The absorbance was measured by a microplate reader at 490 nm. IC50 values were calculated using GraphPad Prism 5.0 software.
Regarding `CO[C@@H](C)COc1nc2[nH]cc(F)c2cc1Oc1cc(N2CCC3(CC2)CN([C@H]2CCC[C@H]2c2ccccc2C(C)C)C3)ccc1C(=O)NS(=O)(=O)c1cnc(NC[C@H]2CC[C@](C)(O)CC2)c([N+](=O)[O-])c1` (single isomer, unassigned) [Example A-155a, 2-((3-fluoro-6-((S)-2-methoxypropoxy)-1H-pyrrolo[2,3-b]pyridin-5-yl)oxy)-N-((6-(((1r,4r)-4-hydroxy-4-methylcyclohexyl)methyl)amino)-5-nitropyridin-3-yl)sulfonyl)-4-(2-((1S,2S or 1R,2R)-2-(2-isopropylphenyl)cyclo-pentyl)-2,7-diazaspiro[3.5]nonan-7-yl) benzamide], the IC50 was determined as 27 nM.
Same read-out and setting: the result for `CCc1nc2[nH]cc(F)c2cc1Oc1cc(N2CCC3(CC2)CC(N2CCC[C@H]2c2ccccc2C(C)C)C3)ccc1C(=O)NS(=O)(=O)c1cc2c(c([N+](=O)[O-])c1)N[C@@H]([C@H]1CC[C@](C)(O)CC1)CO2` (single isomer, unassigned) [Example D-245, 2-((6-ethyl-3-fluoro-1H-pyrrolo [2,3-b]pyridin-5-yl)oxy)-N-(((S)-3-((1r,4S)-4-hydroxy-4-methylcyclohexyl)-5-nitro-3,4-dihydro-2H-benzo[b][1,4]oxazin-7-yl)sulfonyl)-4-(2-((R or S)-2-(2-isopropylphenyl)pyrrolidin-1-yl)-7-azaspiro[3.5]nonan-7-yl)benzamide] reads 15 nM; that for `CCc1nc2[nH]cc(F)c2cc1Oc1cc(N2CCC3(CC2)CN([C@H]2CCC[C@H]2c2ccccc2C(C)C)C3)ccc1C(=O)NS(=O)(=O)c1cnc(NC[C@H]2CC[C@](C)(O)CC2)c([N+](=O)[O-])c1` (single isomer, unassigned) [Example A-157, 2-((6-ethyl-3-fluoro-1H-pyrrolo[2,3-b]pyridin-5-yl)oxy)-N-((6-((((1r,4r) 4-hydroxy-4-methylcyclohexyl)methyl)amino)-5-nitropyridin-3-yl)sulfonyl)-4-(2-((1S,2S or 1R,2R)-2-(2-isopropylphenyl)cyclo-pentyl)-2,7-diazaspiro[3.5]nonan-7-yl) benzamide], 23 nM; that for `CO[C@@H](C)COc1nc2[nH]cc(F)c2cc1Oc1cc(N2CCC3(CC2)CC(N2CCC[C@H]2c2ccccc2C(C)C)C3)ccc1C(=O)NS(=O)(=O)c1cc2c(c([N+](=O)[O-])c1)N[C@@H]([C@H]1CC[C@](C)(O)CC1)CO2` (single isomer, unassigned) [Example D-243a, 2-((3-fluoro-6-((S)-2-methoxypropoxy)-1H-pyrrolo[2,3-b]pyridin-5-yl)oxy)-N-(((S)-3-((1r,4S)-4-hydroxy-4-methylcyclohexyl)-5-nitro-3,4-dihydro-2H-benzo[b][1,4]oxazin-7-yl)sulfonyl)-4-(2-((R or S)-2-(2-isopropylphenyl)pyrrolidin-1-yl)-7-azaspiro[3.5]nonan-7-yl) benzamide], 13 nM.
For the molecule `CO[C@H](C)COc1nc2[nH]cc(F)c2cc1Oc1cc(N2CCC3(CC2)CC(N2CCC[C@H]2c2ccccc2C(C)C)C3)ccc1C(=O)NS(=O)(=O)c1cc2c(c([N+](=O)[O-])c1)N[C@@H]([C@H]1CC[C@](C)(O)CC1)CO2` (single isomer, unassigned) [Example D-243b, 2-((3-fluoro-6-((R)-2-methoxypropoxy)-1H-pyrrolo[2,3-b]pyridin-5-yl)oxy)-N-(((S)-3-((1r,4S)-4-hydroxy-4-methylcyclohexyl)-5-nitro-3,4-dihydro-2H-benzo[b][1,4]oxazin-7-yl)sulfonyl)-4-(2-((R or S)-2-(2-isopropylphenyl)pyrrolidin-1-yl)-7-azaspiro[3.5]nonan-7-yl) benzamide], the IC50 came out at 20 nM.
As to `CCc1nc2[nH]cc(F)c2cc1Oc1cc(N2CCC3(CC2)CN([C@H]2CCC[C@H]2c2ccccc2C(C)C)C3)ccc1C(=O)NS(=O)(=O)c1ccc(NC[C@H]2CC[C@](C)(O)CC2)c([N+](=O)[O-])c1` (single isomer, unassigned) [Example D-235, 2-((6-ethyl-3-fluoro-1H-pyrrolo [2,3-b]pyridin-5-yl)oxy)-N-((4-(((1r,4r)-4-hydroxy-4-methylcyclohexyl)methyl)amino)-3-nitrophenyl) sulfonyl)-4-(2-((1S,2S or 1R,2R)-2-(2-isopropylphenyl)cyclopentyl)-2,7-diazaspiro[3.5] nonan-7-yl)benzamide], the IC50 was found to be 10 nM.
Take `CO[C@@H](C)COc1nc2[nH]cc(F)c2cc1Oc1cc(N2CCC3(CC2)CN([C@H]2CCC[C@H]2c2ccccc2C(C)C)C3)ccc1C(=O)NS(=O)(=O)c1cc2c(c([N+](=O)[O-])c1)N[C@@H]([C@H]1CC[C@](C)(O)CC1)CO2` (single isomer, unassigned) [Example D-241a, 2-((3-fluoro-6-((S)-2-methoxypropoxy)-1H-pyrrolo[2,3-b]pyridin-5-yl)oxy)-N-((S)-3-((1r,4S)-4-hydroxy-4-methylcyclohexyl)-5-nitro-3,4-dihydro-2H-benzo[b][1,4]oxazin-7-yl)sulfonyl)-4-(2-((1S,2S or 1R,2R)-2-(2-isopropylphenyl)cyclopentyl)-2,7-diazaspiro[3.5]nonan-7-yl)benzamide]: the IC50 was found to be 11 nM.
On the same count and under the same terms, the result for `CCc1nc2[nH]cc(F)c2cc1Oc1cc(N2CCC3(CC2)CN([C@H]2CCC[C@H]2c2ccccc2C(C)C)C3)ccc1C(=O)NS(=O)(=O)c1cc2c(c([N+](=O)[O-])c1)N[C@@H]([C@H]1CC[C@](C)(O)CC1)CO2` (single isomer, unassigned) [Example D-239, 2-((6-ethyl-3-fluoro-1H-pyrrolo [2,3-b]pyridin-5-yl)oxy)-N-(((S)-3-((1r,4S)-4-hydroxy-4-methylcyclohexyl)-5-nitro-3,4-dihydro-2H-benzo[b][1,4]oxazin-7-yl)sulfonyl)-4-(2-((1S,2S or 1R,2R)-2-(2-isopropylphenyl)cyclopentyl)-2,7-diazaspiro[3.5]nonan-7-yl)benzamide] reads 5 nM.

The next assay relates to DoHH2 cells. Briefly: Cell proliferation assay, DoHH2 cells (MTS, 120 h). The format is cell-based. To be noted: Homo sapiens, DOHH-2. How it is done:
MTS testing kit was purchased from Promega (Madison, Wis., USA). The RPMI-1640, Fetal bovine serum and Penicillin-Streptomycin were purchased from BI (Biological Industries, Beit Haemek, Israel). Dimethyl sulfoxide (DMSO) was purchased from Sigma (St. Louis, Mo., USA). DoHH2 (DSMZ catalog #: ACC47) cells were cultured in RPMI-1640 supplemented with Penicillin-Streptomycin and 10% FBS.
To investigate whether a compound is able to inhibit the activity of BCL-2 in cells, a mechanism-based assay using DoHH2 lines was developed. In this assay, the inhibition of BCL-2 was reflected by the inhibition of cell proliferation of DoHH2 cells. Cells were plated into 96-well plates at the optimized cell density of 5000 cells/well. Plates were incubated at 37° C., with 5% CO2 for 4h. Compounds were serially diluted and added to the plates with the final concentrations of 10000, 3333.3, 1111.1, 370.4, 123.5, 41.2, 13.7, 4.6 and 1.5 nM. Plates were incubated at 37° C., with 5% CO2 for 120 h. 20 μl MTS was added into each well and the plates were incubated at 37° C., with 5% CO2 for exactly 2 h. The absorbance was measured by a microplate reader at 490 nm. IC50 was calculated using GraphPad Prism 5.0 software.
For `CC(C)c1ccccc1[C@@H]1COCCN1C1CC2(CCN(c3ccc(C(=O)NS(=O)(=O)c4cnc(NC[C@H]5CC[C@](C)(O)CC5)c([N+](=O)[O-])c4)c(Oc4cnc5[nH]cc(Cl)c5c4)c3)CC2)C1` (single isomer, unassigned) [Example A-129, 2-((3-chloro-1H-pyrrolo[2,3-b]pyridin-5-yl)oxy)-N-((6-((((1r,4r)-4-hydroxy-4-methylcyclohexyl)methyl)amino)-5-nitropyridin-3-yl)sulfonyl)-4-(2-((R or S)-3-(2-isopropylphenyl)morpholino)-7-azaspiro[3.5]nonan-7-yl) benzamide], the IC50 was at most 1 nM.
For `CC(C)c1ccccc1[C@@H]1CCCN1C1CC2(CCN(c3ccc(C(=O)NS(=O)(=O)c4cc5c(c([N+](=O)[O-])c4)O[C@@H](CN4CCOCC4)CO5)c(Oc4cnc5[nH]ccc5c4)c3)CC2)C1` (single isomer, unassigned) [Example E-35, 2-((1H-pyrrolo [2,3-b]pyridin-5-yl)oxy)-4-(2-((R or S)-2-(2-isopropylphenyl)pyrrolidin-1-yl)-7-azaspiro[3.5]nonan-7-yl)-N-(((S)-2-(morpholinomethyl)-8-nitro-2,3-dihydrobenzo [b][1,4]dioxin-6-yl)sulfonyl) benzamide], the IC50 is at most 1 nM.
